Assays:
Assay in all cases: relative viability (nuclei count vs DMSO), 5 days (fraction); higher = more cells survive
ABC-1 = tested on: ABC-1
Summary of the method: (§1)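 Relative viability was taken as the ratio of nuclei in treated wells to nuclei in vehicle wells. Lung cancer cell lines in 1536-well plates received compounds by pin tool one day after seeding, either one drug alone or a fixed anchor-drug dose plus five library-drug doses (not always all listed) in √10 steps. Nuclei were counted on 4× images after 5 days of treatment, and values are medians of duplicate plates.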

CAL-12T = tested on: CAL-12T
Summary of the method: as §1

COR-L 105 = tested on: COR-L 105
Summary of the method: as §1

ChaGo-K-1 = tested on: ChaGo-K-1
Summary of the method: as §1

EMC-BAC-2 = tested on: EMC-BAC-2
Summary of the method: as §1

EPLC-272H = tested on: EPLC-272H
Summary of the method: as §1

HCC-15 = tested on: HCC-15
Summary of the method: as §1

HCC-78 = tested on: HCC-78
Summary of the method: as §1

HOP-62 = tested on: HOP-62
Summary of the method: as §1

LXF-289 = tested on: LXF-289
Summary of the method: as §1

NCI-H1666 = tested on: NCI-H1666
Summary of the method: as §1

NCI-H1755 = tested on: NCI-H1755
Summary of the method: as §1

NCI-H1915 = tested on: NCI-H1915
Summary of the method: as §1

NCI-H1975 = tested on: NCI-H1975
Summary of the method: as §1

NCI-H2023 = tested on: NCI-H2023
Summary of the method: as §1

NCI-H2085 = tested on: NCI-H2085
Summary of the method: as §1

NCI-H2126 = tested on: NCI-H2126
Summary of the method: as §1

NCI-H3122 = tested on: NCI-H3122
Summary of the method: as §1

NCI-H322M = tested on: NCI-H322M
Summary of the method: as §1

NCI-H358 = tested on: NCI-H358
Summary of the method: as §1

NCI-H441 = tested on: NCI-H441
Summary of the method: as §1

UMC-11 = tested on: UMC-11
Summary of the method: as §1

O=c1cc(-c2cccc3c2Sc2ccccc2S3)oc(N2CCOCC2)c1 + N=C(N)NC(=N)NCCc1ccccc1 [Phenformin] (partner 250 µM) showed a relative viability (ABC-1; first compound 0.08 µM) of 0.228, a relative viability (ABC-1; first compound 0.253 µM) of 0.23 and a relative viability (ABC-1; first compound 0.8 µM) of 0.23. It also gave a relative viability (ABC-1; first compound 2.53 µM) of 0.234, a relative viability (ABC-1; first compound 8 µM) of 0.277 and a relative viability (CAL-12T; first compound 0.08 µM) of 0.534. The relative viability (CAL-12T; first compound 0.253 µM) was 0.603, the relative viability (CAL-12T; first compound 0.8 µM) was 0.597 and the relative viability (CAL-12T; first compound 2.53 µM) was 0.514. It also gave a relative viability (CAL-12T; first compound 8 µM) of 0.487, a relative viability (COR-L 105; first compound 0.08 µM) of 0.454 and a relative viability (COR-L 105; first compound 0.253 µM) of 0.471. For the same molecule, the relative viability (COR-L 105; first compound 0.8 µM) was 0.466, the relative viability (COR-L 105; first compound 2.53 µM) was 0.507 and the relative viability (COR-L 105; first compound 8 µM) was 0.47. The relative viability (ChaGo-K-1; first compound 0.08 µM) was 0.463, the relative viability (ChaGo-K-1; first compound 0.253 µM) was 0.53 and the relative viability (ChaGo-K-1; first compound 0.8 µM) was 0.56. The relative viability (ChaGo-K-1; first compound 2.53 µM) was 0.344, the relative viability (ChaGo-K-1; first compound 8 µM) was 0.509 and the relative viability (EMC-BAC-2; first compound 0.08 µM) was 0.502. The relative viability (EMC-BAC-2; first compound 0.253 µM) was 0.54, the relative viability (EMC-BAC-2; first compound 0.8 µM) was 0.563 and the relative viability (EMC-BAC-2; first compound 2.53 µM) was 0.489. It also gave a relative viability (EMC-BAC-2; first compound 8 µM) of 0.519, a relative viability (EPLC-272H; first compound 0.08 µM) of 0.247 and a relative viability (EPLC-272H; first compound 0.253 µM) of 0.333. It also gave a relative viability (EPLC-272H; first compound 0.8 µM) of 0.318, a relative viability (EPLC-272H; first compound 2.53 µM) of 0.254 and a relative viability (EPLC-272H; first compound 8 µM) of 0.255. The relative viability (HCC-15; first compound 0.08 µM) was 0.394, the relative viability (HCC-15; first compound 0.253 µM) was 0.608 and the relative viability (HCC-15; first compound 0.8 µM) was 0.468. The relative viability (HCC-15; first compound 2.53 µM) was 0.472, the relative viability (HCC-15; first compound 8 µM) was 0.503 and the relative viability (HCC-78; first compound 0.08 µM) was 0.62. It also gave a relative viability (HCC-78; first compound 0.253 µM) of 0.769, a relative viability (HCC-78; first compound 0.8 µM) of 0.638 and a relative viability (HCC-78; first compound 2.53 µM) of 0.555. It also gave a relative viability (HCC-78; first compound 8 µM) of 0.667, a relative viability (HOP-62; first compound 0.08 µM) of 0.714 and a relative viability (HOP-62; first compound 0.253 µM) of 0.899. The relative viability (HOP-62; first compound 0.8 µM) was 0.688, the relative viability (HOP-62; first compound 2.53 µM) was 0.663 and the relative viability (HOP-62; first compound 8 µM) was 0.799. For the same molecule, the relative viability (LXF-289; first compound 0.08 µM) was 0.531, the relative viability (LXF-289; first compound 0.253 µM) was 0.526 and the relative viability (LXF-289; first compound 0.8 µM) was 0.556. For the same molecule, the relative viability (LXF-289; first compound 2.53 µM) was 0.431, the relative viability (LXF-289; first compound 8 µM) was 0.558 and the relative viability (NCI-H1666; first compound 0.08 µM) was 0.601. The relative viability (NCI-H1666; first compound 0.253 µM) was 0.644, the relative viability (NCI-H1666; first compound 0.8 µM) was 0.578 and the relative viability (NCI-H1666; first compound 2.53 µM) was 0.572. The relative viability (NCI-H1666; first compound 8 µM) was 0.585, the relative viability (NCI-H1755; first compound 0.08 µM) was 0.625 and the relative viability (NCI-H1755; first compound 0.253 µM) was 0.694. It also gave a relative viability (NCI-H1755; first compound 0.8 µM) of 0.597, a relative viability (NCI-H1755; first compound 2.53 µM) of 0.545 and a relative viability (NCI-H1755; first compound 8 µM) of 0.653. For the same molecule, the relative viability (NCI-H1915; first compound 0.08 µM) was 0.37, the relative viability (NCI-H1915; first compound 0.253 µM) was 0.4 and the relative viability (NCI-H1915; first compound 0.8 µM) was 0.436. The relative viability (NCI-H1915; first compound 2.53 µM) was 0.355, the relative viability (NCI-H1915; first compound 8 µM) was 0.406 and the relative viability (NCI-H1975; first compound 0.08 µM) was 0.42. The relative viability (NCI-H1975; first compound 0.253 µM) was 0.488, the relative viability (NCI-H1975; first compound 0.8 µM) was 0.418 and the relative viability (NCI-H1975; first compound 2.53 µM) was 0.386. The relative viability (NCI-H1975; first compound 8 µM) was 0.418, the relative viability (NCI-H2023; first compound 0.08 µM) was 0.401 and the relative viability (NCI-H2023; first compound 0.253 µM) was 0.484. For the same molecule, the relative viability (NCI-H2023; first compound 0.8 µM) was 0.476, the relative viability (NCI-H2023; first compound 2.53 µM) was 0.362 and the relative viability (NCI-H2023; first compound 8 µM) was 0.44. For the same molecule, the relative viability (NCI-H2085; first compound 0.08 µM) was 0.654, the relative viability (NCI-H2085; first compound 0.253 µM) was 0.702 and the relative viability (NCI-H2085; first compound 0.8 µM) was 0.739. For the same molecule, the relative viability (NCI-H2085; first compound 2.53 µM) was 0.678, the relative viability (NCI-H2085; first compound 8 µM) was 0.576 and the relative viability (NCI-H2126; first compound 0.08 µM) was 0.53. The relative viability (NCI-H2126; first compound 0.253 µM) was 0.584, the relative viability (NCI-H2126; first compound 0.8 µM) was 0.482 and the relative viability (NCI-H2126; first compound 2.53 µM) was 0.517. The relative viability (NCI-H2126; first compound 8 µM) was 0.521, the relative viability (NCI-H3122; first compound 0.08 µM) was 0.38 and the relative viability (NCI-H3122; first compound 0.253 µM) was 0.418. The relative viability (NCI-H3122; first compound 0.8 µM) was 0.376, the relative viability (NCI-H3122; first compound 2.53 µM) was 0.36 and the relative viability (NCI-H3122; first compound 8 µM) was 0.398. The relative viability (NCI-H322M; first compound 0.08 µM) was 0.738, the relative viability (NCI-H322M; first compound 0.253 µM) was 0.764 and the relative viability (NCI-H322M; first compound 0.8 µM) was 0.742. The relative viability (NCI-H322M; first compound 2.53 µM) was 0.632, the relative viability (NCI-H322M; first compound 8 µM) was 0.688 and the relative viability (NCI-H358; first compound 0.08 µM) was 0.301. It also gave a relative viability (NCI-H358; first compound 0.253 µM) of 0.436, a relative viability (NCI-H358; first compound 0.8 µM) of 0.378 and a relative viability (NCI-H358; first compound 2.53 µM) of 0.362. It also gave a relative viability (NCI-H358; first compound 8 µM) of 0.356, a relative viability (NCI-H441; first compound 0.08 µM) of 0.854 and a relative viability (NCI-H441; first compound 0.253 µM) of 1.2. The relative viability (NCI-H441; first compound 0.8 µM) was 0.895, the relative viability (NCI-H441; first compound 2.53 µM) was 0.903 and the relative viability (NCI-H441; first compound 8 µM) was 0.904. It also gave a relative viability (UMC-11; first compound 0.08 µM) of 0.322, a relative viability (UMC-11; first compound 0.253 µM) of 0.34 and a relative viability (UMC-11; first compound 0.8 µM) of 0.372. The relative viability (UMC-11; first compound 2.53 µM) was 0.29 and the relative viability (UMC-11; first compound 8 µM) was 0.324.
